Reference: ChEMBL document CHEMBL5725430, “Dihydro-benzo-oxazine and dihydro-pyrido-oxazine derivatives” (2017)
Values joined by “and” are separate entries in the source; they are usually repeats but may differ in a detail not shown here. Identical values can stand only once.

What was measured:
[1] = biological target: Phosphatidylinositol 4,5-bisphosphate 3-kinase catalytic subunit alpha isoform (Homo sapiens, UniProt P42336); experiment: (§1) The final concentrations of ATP and phosphatidyl inositol in the assay are 5 μM and 6 μg/mL, respectively. The reaction is started by the addition of PI3 kinase, e.g. PI3 kinase 6.p110δ.The components of the assay are added per well as follows 10 μl test compound in 5% DMSO per well in columns 2-1. Total activity is determined by addition 10 μl of 5% vol/vol DMSO in the first 4 wells of column 1 and the last 4 wells of column 12. The background is determined by addition of 10 μM control compound to the last 4 wells of column 1 and the first 4 wells of column 12. 2 mL Assay mix are prepared per plate 1.912 mL of HEPES assay buffer 8.33 μl of 3 mM stock of ATP giving a final concentration of 5 μM per well 1 μl of [33P]ATP on the activity date giving 0.05 μCi per well 30 μl of 1 mg/mL PI stock giving a final concentration of 6 μg/mL per well 5 μl of 1 M stock MgCl2 giving a final concentration of 1 mM per well 20 μl of the assay mix are added per well. 2 mL Enzyme mix are prepared per plate (x* μl PI3 kinase p110(3 in 2 mL of kinase buffer). The Enzyme mix is kept on ice during addition to the assay plates. 20 μl ‘Enzyme mix’ are added/well to start the reaction. The plate is then incubated at room temperature for 90 minutes. The reaction is terminated by the addition of 50 μl WGA-SPA bead (wheat germ agglutinin-coated Scintillation Proximity Assay beads) suspension per well. The assay plate is sealed using TopSeal-S (heat seal for polystyrene microplates, PerkinElmer LAS [Deutschland] GmbH, Rodgau, Germany) and incubated at room temperature for at least 60 minutes. The assay plate is then centrifuged at 1500 rpm for 2 minutes using the Jouan bench top centrifuge (Jouan Inc., Nantes, France). The assay plate is counted using a Packard TopCount, each well being counted for 20 seconds. The volume of enzyme is dependent on the enzymatic activity of the batch in use.In a more preferred assay, the kinase reaction is performed in a final volume of 10 μl per well of a low volume non-binding CORNING, 384 well black plate (Cat. No. #3676). The final concentrations of ATP and phosphatidyl inositol (PI) in the assay are 1 μM and 10 μg/mL, respectively. The reaction is started by the addition of ATP.The components of the assay are added per well as follows:50 nl test compounds in 90% DMSO per well, in columns 1-20, 8 concentrations (⅓ and 1/3.33 serial dilution step) in single. Low control: 50 nl of 90% DMSO in half the wells of columns 23-24 (0.45% in final). High control: 50 nl of reference compound (e.g. compound of Example 7 in WO 2006/122806) in the other half of columns 23-24 (2.5 μM in final). Standard: 50 nl of reference compound as just mentioned diluted as the test compounds in columns 21-22. 20 mL buffer are prepared per assay 200 μl of 1M TRIS HCl pH7.5 (10 mM in final) 60 μl of 1M MgCl2 (3 mM in final) 500 μl of 2M NaCl (50 mM in final) 100 μl of 10% CHAPS (0.05% in final) 200 μl of 100 mM DTT (1 mM in final) 18.94 mL of nanopure water 10 mL PI are prepared per assay 200 μl of 1 mg/mL 1-alpha-Phosphatidylinositol (Liver Bovine, Avanti Polar Lipids Cat. No. 840042C MW=909.12) prepared in 3% OctylGlucoside (10 μg/mL in final) 9.8 mL of buffer 10 mL ATP are prepared per assay.
Sequence of Phosphatidylinositol 4,5-bisphosphate 3-kinase catalytic subunit alpha isoform (P42336 whole entry, canonical isoform): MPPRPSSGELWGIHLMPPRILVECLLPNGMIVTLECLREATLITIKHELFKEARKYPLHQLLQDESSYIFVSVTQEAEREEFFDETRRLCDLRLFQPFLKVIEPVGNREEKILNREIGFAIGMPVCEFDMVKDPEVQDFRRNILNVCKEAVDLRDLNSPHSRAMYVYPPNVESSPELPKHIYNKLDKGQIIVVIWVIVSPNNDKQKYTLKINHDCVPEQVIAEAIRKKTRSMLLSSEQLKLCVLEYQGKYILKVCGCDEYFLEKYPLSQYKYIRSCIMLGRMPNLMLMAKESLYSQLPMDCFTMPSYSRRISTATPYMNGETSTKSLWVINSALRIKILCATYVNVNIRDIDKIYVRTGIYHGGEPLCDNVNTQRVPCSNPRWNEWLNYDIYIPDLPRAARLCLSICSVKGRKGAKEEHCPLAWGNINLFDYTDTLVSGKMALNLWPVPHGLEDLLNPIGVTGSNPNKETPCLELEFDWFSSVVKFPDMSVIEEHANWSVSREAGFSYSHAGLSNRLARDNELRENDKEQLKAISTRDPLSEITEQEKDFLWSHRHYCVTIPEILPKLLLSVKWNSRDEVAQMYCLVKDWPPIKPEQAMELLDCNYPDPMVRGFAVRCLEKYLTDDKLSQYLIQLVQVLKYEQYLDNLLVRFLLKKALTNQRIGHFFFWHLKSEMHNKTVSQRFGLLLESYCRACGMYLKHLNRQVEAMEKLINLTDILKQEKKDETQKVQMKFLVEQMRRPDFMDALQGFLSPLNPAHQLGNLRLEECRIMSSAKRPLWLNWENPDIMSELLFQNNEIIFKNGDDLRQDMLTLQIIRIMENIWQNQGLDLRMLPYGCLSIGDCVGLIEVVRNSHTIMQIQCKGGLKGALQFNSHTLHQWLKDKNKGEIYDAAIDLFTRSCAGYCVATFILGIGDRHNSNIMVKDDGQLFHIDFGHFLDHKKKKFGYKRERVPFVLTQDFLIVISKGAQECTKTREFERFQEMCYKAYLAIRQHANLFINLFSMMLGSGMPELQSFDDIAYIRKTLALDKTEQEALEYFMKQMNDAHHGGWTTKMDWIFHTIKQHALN

[2] = biological target: T1, Phosphatidylinositol 4,5-bisphosphate 3-kinase catalytic subunit delta isoform (Homo sapiens, UniProt O00329); experiment: as §1
T1 sequence (O00329 whole entry): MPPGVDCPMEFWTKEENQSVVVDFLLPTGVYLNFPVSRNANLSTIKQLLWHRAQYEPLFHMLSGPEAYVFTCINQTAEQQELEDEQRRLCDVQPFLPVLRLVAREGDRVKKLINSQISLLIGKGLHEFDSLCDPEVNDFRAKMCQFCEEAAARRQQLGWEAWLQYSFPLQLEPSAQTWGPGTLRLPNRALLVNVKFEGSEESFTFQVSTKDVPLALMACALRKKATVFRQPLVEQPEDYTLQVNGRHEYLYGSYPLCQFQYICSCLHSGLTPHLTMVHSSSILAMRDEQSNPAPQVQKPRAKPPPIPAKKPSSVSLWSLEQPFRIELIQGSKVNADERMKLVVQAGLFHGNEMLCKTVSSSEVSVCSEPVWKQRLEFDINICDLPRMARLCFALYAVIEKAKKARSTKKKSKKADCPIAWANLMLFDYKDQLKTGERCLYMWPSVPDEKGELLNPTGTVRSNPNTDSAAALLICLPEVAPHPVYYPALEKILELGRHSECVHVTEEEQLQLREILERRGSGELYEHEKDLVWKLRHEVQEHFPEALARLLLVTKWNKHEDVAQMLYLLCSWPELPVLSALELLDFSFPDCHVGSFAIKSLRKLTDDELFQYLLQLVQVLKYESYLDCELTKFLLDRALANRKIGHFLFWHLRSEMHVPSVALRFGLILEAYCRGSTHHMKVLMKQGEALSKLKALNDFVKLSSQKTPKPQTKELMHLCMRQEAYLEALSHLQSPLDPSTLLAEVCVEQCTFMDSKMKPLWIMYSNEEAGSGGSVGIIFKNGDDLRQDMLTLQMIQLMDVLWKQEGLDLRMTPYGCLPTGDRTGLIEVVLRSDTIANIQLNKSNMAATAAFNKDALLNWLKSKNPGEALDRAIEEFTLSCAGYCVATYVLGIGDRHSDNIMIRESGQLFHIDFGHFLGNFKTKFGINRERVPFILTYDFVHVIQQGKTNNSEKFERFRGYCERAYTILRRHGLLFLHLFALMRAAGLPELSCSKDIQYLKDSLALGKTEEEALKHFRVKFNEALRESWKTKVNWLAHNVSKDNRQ

| Compound | IC50 [1] | IC50 [2] |
| --- | --- | --- |
| COc1ncc(N2CCOc3ccc(O[C@H]4CCN(C(=O)C(C)C)C4)cc32)cc1C#N | 463 nM | 11 nM |
| COc1ncc(N2CCOc3ccc(O[C@H]4CCN(C(=O)c5cn(C)cn5)C4)cc32)cc1F | 209 nM | 10.2 nM |
| Cc1cc(N2CCOc3ccc(O[C@H]4CCN(C(=O)c5cn(C)cn5)C4)cc32)cnc1Cl | 193 nM | 32 nM |
| Cc1cc(N2CCOc3cnc(O[C@H]4CCN(C(=O)C5CCS(=O)(=O)CC5)C4)cc32)cnc1OC(F)F | 870 nM | 10 nM |
| COc1cc(N2CCOc3ccc(O[C@H]4CCN(C(=O)c5cn(C)cn5)C4)cc32)cnc1Cl | 496 nM | 41 nM |
| Cc1ccc(N2CCOc3ccc(O[C@H]4CCN(C(=O)C5CCOCC5)C4)cc32)cn1 | 4660 nM | 37 nM |
| CC(C)S(=O)(=O)c1cncc(N2CCOc3ccc(O[C@H]4CCN(C(=O)C5CCOCC5)C4)cc32)c1 | 2240 nM | 110 nM |
| COc1cc(N2CCOc3ccc(O[C@H]4CCN(C(=O)C5CCC(F)(F)CC5)C4)cc32)cnc1S(C)(=O)=O | 870 nM | 35 nM |
| O=C(C1CCOCC1)N1CC[C@H](Oc2ccc3c(c2)N(c2cncc(S(=O)(=O)N4CCOCC4)c2)CCO3)C1 | 313 nM | 3 nM |
| O=C(C1CCOCC1)N1CC[C@H](Oc2ccc3c(c2)N(c2cncc(C(F)(F)F)c2)CCO3)C1 | 377 nM | 9 nM |
| Cc1cc(N2CCOc3ccc(O[C@H]4CCN(C(=O)c5ccc(=O)[nH]c5)C4)cc32)cnc1Cl | 795 nM | 35 nM |
| COc1cc(N2CCOc3ccc(O[C@H]4CCN(C(=O)C5CCCO5)C4)cc32)cnc1OC (single isomer, unassigned) | 703 nM and 521 nM | 5 nM and 7 nM |
